Activity and inhibition data for six compounds are collected here from ChEMBL document CHEMBL1926618, “Homosecoiridoids from the flower buds of Lonicera japonica” (2011).

Usually inhibition stands for the percentage by which the read-out fell short of the control.

Activity calls are given as the source filed them. The calls are words filed in the database; no cut-off is given here.

One experiment deals with Bel-7402. In words: Cytotoxicity against human Bel7402 cells at 10 uM after 96 hrs by MTT assay. The experiment is classed as functional, cell-based. (In general: Formazan colour is commonly taken as a measure of viable cells.)
In experiment [1] the test system is Human immunodeficiency virus 1. In words: Antiviral activity against HIV1 infected in 293T cells at 10 uM pretreated for 15 mins prior infection measured after 48 hrs by luciferase reporter gene assay. The experiment is classed as functional, organism-based. In general terms: Reporter assays use an easily measured gene product as a stand-in for the process of interest.

The subject of the next experiment is PC-12. In words: Neuroprotective activity against glutamate-induced neurotoxicity in rat PC12 cells at 10 uM preincubated for 24 hrs prior challenge measured after 24 hrs by MTT assay. The class given is functional, cell-based.
The test system of a further experiment is MCF7. In words: Cytotoxicity against human MCF7 cells at 10 uM after 96 hrs by MTT assay. The class given is functional, cell-based.
The subject of another experiment is BGC-823. In words: Cytotoxicity against human BGC823 cells at 10 uM after 96 hrs by MTT assay. The class given is functional, cell-based.
Experiment [2] is described as follows: Antiinflammatory activity in rat polymorphonuclear leukocytes assessed as inhibition of platelet-activating factor-induced glucuronidase release at 10 uM preincubated for 15 mins before challenge by spectrophotometry. The experiment is classed as functional.
Another experiment has as its system A549. In words: Cytotoxicity against human A549 cells at 10 uM after 96 hrs by MTT assay. The experiment is classed as functional, cell-based.
A further experiment concerns KETR3. In words: Cytotoxicity against human Ketr3 cells at 10 uM after 96 hrs by MTT assay. The experiment is classed as functional, cell-based.
In a further experiment the test system is HCT-8. In words: Cytotoxicity against human HCT8 cells at 10 uM after 96 hrs by MTT assay. The experiment is classed as functional, cell-based.
The test system of the next experiment is Liver microsomes. In words: Antioxidant activity against Fe2+-cystine induced lipid peroxidation in rat liver microsomes at 10 uM. The class given is functional. Particulars: Microsome. In general terms: Microsomes from liver hold many membrane-bound enzymes, among them those of drug oxidation.
The target in experiment [3] is T1, Tyrosine-protein phosphatase non-receptor type 1 (Homo sapiens) (UniProt P18031).
T1 sequence (whole entry): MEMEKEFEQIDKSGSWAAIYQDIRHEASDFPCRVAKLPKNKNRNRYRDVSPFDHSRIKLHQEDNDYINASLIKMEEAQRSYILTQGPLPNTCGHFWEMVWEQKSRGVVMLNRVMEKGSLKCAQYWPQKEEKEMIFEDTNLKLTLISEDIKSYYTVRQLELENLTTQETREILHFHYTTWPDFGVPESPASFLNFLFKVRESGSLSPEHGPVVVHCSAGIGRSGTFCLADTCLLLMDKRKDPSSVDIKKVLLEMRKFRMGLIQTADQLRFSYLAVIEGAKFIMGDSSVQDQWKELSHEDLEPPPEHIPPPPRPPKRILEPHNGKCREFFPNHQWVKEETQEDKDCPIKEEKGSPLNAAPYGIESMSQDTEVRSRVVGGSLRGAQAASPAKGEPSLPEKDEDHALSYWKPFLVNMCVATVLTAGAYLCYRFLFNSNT
In words: Inhibition of GST-tagged human PTP1B PTPase activity using p-NPP as substrate at 10 uM after 10 mins by spectrophotometry.

Turning to `C=C[C@H]1[C@H](O[C@@H]2O[C@H](CO)[C@@H](O)[C@H](O)[C@H]2O)OC=C(C(=O)O)[C@H]1/C=C/c1cc(C(=O)[O-])c[n+](CCCC(=O)O)c1` [DEMETHYL LONIJAPOSIDE A], the outcome (in the experiment with Bel-7402; in experiment [1]; with PC-12; in the experiment with MCF7; in the experiment on BGC-823; with A549) was inactive. The result in the experiment with KETR3, with HCT-8 and in the experiment with Liver microsomes was inactive. For the same compound, the inhibition at 10 µM in experiment [2] was < 30%. For the same compound, in [3], the inhibition entry was “inactive”.
Consider `C[C@@H]1C(=O)O[C@H]2[C@H](O)[C@@]34[C@H]5C[C@@H](C(C)(C)C)[C@]36[C@@H](OC(=O)[C@@H]6O)O[C@@]4(C(=O)O5)[C@@]12O` [GINKOLIDE B], for which the inhibition at 10 µM in [2] is 84.3%.
Consider `C=C[C@H]1[C@H](O[C@@H]2O[C@H](CO)[C@@H](O)[C@H](O)[C@H]2O)OC=C(C(=O)OC)[C@H]1/C=C/c1cc(C(=O)[O-])c[n+](CC)c1` [LONIJAPOSIDE E], for which the result (in the experiment with Bel-7402; in experiment [1]; in the experiment with PC-12; in the experiment on MCF7; in the experiment with BGC-823; with A549) was inactive. The outcome with KETR3, in the experiment with HCT-8 and with Liver microsomes was inactive. In addition, the inhibition at 10 µM in experiment [2] was < 30%. Moreover, the inhibition entry in experiment [3] was “inactive”.
As to `C=C[C@H]1[C@H](O[C@@H]2O[C@H](CO)[C@@H](O)[C@H](O)[C@H]2O)OC=C(C(=O)O)[C@H]1/C=C/c1cc(C(=O)[O-])c[n+](CC)c1` [LONIJAPOSIDE F], the result (in the experiment with Bel-7402; in experiment [1]; in the experiment on PC-12; in the experiment with MCF7; with BGC-823; with A549) was inactive. In addition, the outcome in the experiment with KETR3, with HCT-8 and in the experiment with Liver microsomes was inactive. Also, the inhibition at 10 µM in [2] is 87.6%. Besides, the inhibition entry in [3] was “inactive”.
`C=C[C@H]1[C@H](O[C@@H]2O[C@H](CO)[C@@H](O)[C@H](O)[C@H]2O)OC=C(C(=O)OC)[C@H]1/C=C/c1cc(C(=O)[O-])c[n+](C)c1` [LONIJAPOSIDE G]: the outcome (in the experiment with Bel-7402; in [1]; in the experiment with PC-12; with MCF7; in the experiment on BGC-823; in the experiment on A549) was inactive. In addition, the result with KETR3, with HCT-8 and in the experiment with Liver microsomes was inactive. For the same compound, the inhibition at 10 µM in [2] is < 30%. Also, in [3], the inhibition result is “inactive”.
For `C=C[C@@H]1/C(=C\Cc2cc(C(=O)[O-])c[n+](CCCC(=O)O)c2)C(C(=O)OC)=CO[C@H]1O[C@@H]1O[C@H](CO)[C@@H](O)[C@H](O)[C@H]1O` [LONIJAPOSIDE H], the result (with Bel-7402; in experiment [1]; in the experiment with PC-12; in the experiment with MCF7; in the experiment with BGC-823; in the experiment with A549) was inactive. In addition, the result in the experiment with KETR3, with HCT-8 and in the experiment with Liver microsomes was inactive. The inhibition at 10 µM in experiment [2] came to 68.6%. Besides, the inhibition result in experiment [3] was “inactive”.
